Measured values as given in article PMC2247230, “Synthesis of somatostatin by breast cancer cells and their inhibition by exogenous somatostatin and sandostatin” (British Journal of Cancer, 1989).
Like-named read-outs stand apart in the source and are kept apart here.

Columns and labels:
[1] = tested on: Antiserum to somatostatin-14; test: Somatostatin radioimmunoassay, specificity (displacement of 125I-Tyr11 somatostatin-14); format: binding; conditions: 20 h at 4 C, charcoal/dextran separation; for sensitivity of the RIA to the substance (displacement of label): triplicate
MDA-MB-436 cells = tested on: MDA-MB-436 cells
Excerpt: (§1) Somatostatin is a neuroendocrine hormone which inhibits not only exocrine and endocrine secretion, but also mito- genesis. Somatostatin-synthesising cells have a widespread anatomical distribution, being found in regions of the central nervous system and gastrointestinal tract. […] There have been few studies of the presence of SLI in breast cancer specimens. […] Inhibition of tumour growth may be indirect, through inhibition of endocrine secretion. […] Correspondence: J. Nelson. Received 5 October 1988, and in revised form, 9 January 1989. Materials and methods Tissue culture All media and fetal calf serum (FCS) were obtained from Flow Laboratories, Rickmansworth, UK. The same batch of serum was used throughout. […] Cell proliferation assays To assess the effects of somatostatin and Sandostatin, 5 x 10^4 cells were inoculated in 24-well tissue culture plates (Costar, Northumbria Biologicals Ltd, Cramlington, UK)- .After one day, plating efficiency was determined in a repre- sentative set of wells (cell counts, day 0) by trypsinisation and electronic cell counting (Coulter counter model ZBI, Coulter Electronics, Luton, UK). […] Thereafter cells were removed and counted at the times indicated.

[2] = read-out RIA
[3] = rat kidney homogenates, ref Pless et al., 1986, cited from earlier work
Excerpt: In the presence of fe ...

MCF-7 cells = test: Cell proliferation assay (electronic cell counting), MCF-7; format: cell-based, human; conditions: 500 ng ml-1, 6 days continuous exposure without medium changes, MEM plus 5% FCS (Figure 4); mean of 3-5 wells
Excerpt: as §1

ZR-75-1 cells = test: Cell proliferation assay (electronic cell counting), ZR-75-1; format: cell-based, human
Excerpt: Somatostatin is a neuroendocrine hormone which inhibits not only exocrine and endocrine secretion, but also mito- genesis. Somatostatin-synthesising cells have a widespread anatomical distribution, being found in regions of the central nervous system and gastrointestinal tract. […] There have been few studies of the presence of SLI in breast cancer specimens. […] Inhibition of tumour growth may be indirect, through inhibition of endocrine secretion. […] Correspondence: J. Nelson. Received 5 October 1988, and in revised form, 9 January 1989. Materials and methods Tissue culture All media and fetal calf serum (FCS) were obtained from Flow Laboratories, Rickmansworth, UK. The same batch of serum was used throughout. MCF-7 cells, a gift from Dr C.R. Green, Liverpool University, were routinely cultured in modified Eagle's mini- mal essential medium (MEM) supplemented with non- essential amino acids, sodium pyruvate (1 mM) and 5% v/v FCS. ZR-75-1 and MDA-MB-436 cells were obtained from the American Tissue Culture Collection. ZR-75-1 cells were cultured in RPMI 1640 medium containing 5% FCS. MDA- MB-436 cells were cultured in Liebowitz 15 medium contain- ing 10% FCS. All media contained Phenol Red and were supplemented with penicillin (1OOIUml-1) and streptomycin (100 ug ml- 1). Cell proliferation assays To assess the effects of somatostatin and Sandostatin, 5 x 10^4 cells were inoculated in 24-well tissue culture plates (Costar, Northumbria Biologicals Ltd, Cramlington, UK)- .After one day, plating efficiency was determined in a repre- sentative set of wells (cell counts, day 0) by trypsinisation and electronic cell counting (Coulter counter model ZBI, Coulter Electronics, Luton, UK). At this time medium was removed from remaining wells and replaced with fresh medium (control) or medium containing peptide (treatment) as indicated. Control and treatment media were either unchanged or changed daily during the course of the experi- ments, or control and treatment media were removed after one day exposure (i.e. from day 0 to day 1) and replaced by control medium. Thereafter cells were removed and counted at the times indicated.

## somatostatin-28
[1]; compared with somatostatin-14
  displacement of label in the RIA: displacement of label was found with somatostatin-28 at higher molarities

## C[C@H](N)C(=O)NCC(=O)N[C@H]1CSSC[C@@H](C(=O)O)NC(=O)[C@H](CO)NC(=O)[C@H]([C@@H](C)O)NC(=O)[C@H](Cc2ccccc2)NC(=O)[C@H]([C@@H](C)O)NC(=O)[C@H](CCCCN)NC(=O)[C@H](Cc2c[nH]c3ccccc23)NC(=O)[C@H](Cc2ccccc2)NC(=O)[C@H](Cc2ccccc2)NC(=O)[C@H](CC(N)=O)NC(=O)[C@H](CCCCN)NC1=O [somatostatin]
MDA-MB-436 cells; serum-free conditions (results not shown)
  cytotoxic effects in serum-free conditions: no cytotoxic effects
[2]; after two days in 5% FCS with or without cells
  exogenous somatostatin remaining, as measured by RIA: undetectable
[2]; in the presence of 5% FCS alone (no cells), after one day incubation
  exogenous somatostatin remaining, as measured by RIA: < 50%
[2]; in the presence of cells and 5% FCS, RPMI 1640, ZR-75-1 cells, 500 ng ml-1, after one day incubation
  exogenous somatostatin remaining, as measured by RIA: < 20%
[3]; within 1 h
  remaining of starting levels after degradation: < 25%

## bacitracin
[1]; 1,000 fmol per tube
  sensitivity of the RIA to the substance (displacement of label): insensitive

## Sandostatin
MCF-7 cells
  effect of continuous exposure on growth (final cell numbers): inhibition of growth
[1]; 500 fmol per tube
  sensitivity of the RIA to the substance (displacement of label): insensitive
ZR-75-1 cells; 500 ng ml-1, 5% FCS, exposure day 0 to day 1, then control medium (Figures 1c, 2b)
  effect of one day exposure followed by return to control medium on cell proliferation: much less effective in inhibiting cell proliferation than a continuous exposure
ZR-75-1 cells; continuous exposure to single or repeated doses of 500 ng ml-1, in the presence of FCS, day 6 (Figures 1a, b and 2a)
  inhibition of ZR-75-1 cell proliferation compared with relevant control populations: > 3 fold
ZR-75-1 cells; in the presence of insulin, 5% FCS (results not shown)
  influence of insulin on the inhibitory effect: not more pronounced in the presence of insulin
ZR-75-1 cells; range 10-500 ng ml-1 tested, without medium changes
  concentration giving consistent inhibition of growth: 500 ng/mL
ZR-75-1 cells; range 10-500 ng ml-1 tested, without medium changes, inhibition at low concentrations variable
  lowest concentration at which inhibition was occasionally observed: 25 ng ml -1
MDA-MB-436 cells; 500 ng ml-1, 6 days continuous exposure without medium changes, L-15 plus 10% FCS (Figure 4), mean of 3-5 wells
  effect of continuous exposure on growth (final cell numbers): inhibition of growth
[3]; up to 20h
  degradation by homogenate: virtually unaffected

## leupeptin
[1]; 2,000 fmol per tube
  sensitivity of the RIA to the substance (displacement of label): insensitive

## EGF
[1]; 1,000 fmol per tube
  sensitivity of the RIA to the substance (displacement of label): insensitive

B1: prolactin (protein, UniProt P01236 29-227, looked up)
Prolactin: LPICPGGAARCQVTLRDLFDRAVVLSHYIHNLSSEMFSEFDKRYTHGRGFITKAINSCHTSSLATPEDKEQAQQMNQKDFLSLIVSILRSWNEPLYHLVTEVRGMQEAPEAILSKAVEIEEQTKRLLEGMELIVSQVHPETKENEIYPVWSGLPSLQMADEESRLSAYYNLLHCLRRDSHKIDNYLKLLKCRIIHNNNC
notes: substance tested for cross-reaction in the somatostatin RIA
[1]; 2,000 fmol per tube
  sensitivity of the RIA to the substance (displacement of label): insensitive
